In publication PMC2614900 (Journal of the American Chemical Society, 2008):

Key:
[1] = system: MT-2 lymphocytes
[2] = system: HIV-1; experiment: Inhibition of HIV-1 replication in MT-2 lymphocytes; conditions: for TI, therapeutic index (CC50/IC50): MT-2 CC50 / HIV-1 IC50
[3] = system: tumor necrosis factor-α (TNFα); conditions: at 10 μg mL^-1; cited from earlier work
[4] = system: IL-10; conditions: at 10 μg mL^-1; cited from earlier work
[5] = system: IL-12; conditions: at 10 μg mL^-1; cited from earlier work
[6] = system: noninfected H9 lymphocytes; conditions: cited from earlier work
[7] = system: HIV; conditions: cited from earlier work
[8] = Cytotoxicity against non-infected MT-2 lymphocytes; conditions: human

Row | Molecule | CC50 [1] [µM] | TI, therapeutic index (CC50/IC50) [2] | other results
1 | 4-epi-hyperolactone C [compound 16] | 462 |  | 
2 | 24-epi-biyouyanagin A [2a] | 285 |  | 
3 | C=C[C@@]1(C)COC(=O)[C@]12O[C@]1(c3ccccc3)[C@H](C2=O)[C@H]2[C@H]([C@H](C)CCC=C(C)C)CC=C(C)[C@H]21 [2b, biyouyanagin A] |  | 7.5 | IC50 ([2]; Human immunodeficiency virus 1, Lymphocyte, read-out: HIV-1 IC50): 26 µM; LPS-induced cytokine production, TNFα [3]: 0.48; LPS-induced cytokine production, IL-10 [4]: 0.03; LPS-induced cytokine production, IL-12 [5]: 0.02; EC50, noninfected H9 lymphocytes [6]: > 25 µg/mL; EC50, inhibition of HIV replication in H9 lymphocytes [7]: 0.798 µg/mL; CC50 [8]: 198 µM
4 | Cc1cn([C@H]2C[C@H](N=[N+]=[N-])[C@@H](CO)O2)c(=O)[nH]c1=O [AZT, reference compound] | > 50 | >641 | 
5 | C=C[C@@]1(C)COC(=O)[C@]12OC(c1ccccc1)=CC2=O [compound 18, hyperolactone C] | 925 | 32.0 | 
